Measurements published in US4933104A, “Anthraquinone derivative as a dichroic dye for a liquid-crystal material, liquid-crystal material and an electrooptical device” (priority 1986, dated 1990).
Where “and” joins values, the source holds several entries; their conditions need not be identical. Equal values may be shown once.

Tests used:
Type in all cases: physicochemical
[1] = limiting solubility in liquid-crystalline mixtures at 20° C.; conditions: for Solubility (limiting), known derivatives: Table 6, derivatives of SU 1089084
[2] = λmax of the long-wave absorption band of the dye; conditions: Table 7; two values = two maxima
Method: A weighed sample of one or several anthraquinone derivatives of general formula /1/ is dissolved upon heating to 60° C. in a liquid-crystalmatrix and then cooled to 20° C.

[3] = negative dichroism S in a liquid-crystalline mixture; conditions: liquid-crystalline mixture ZK-807
Method: (§1) Table 1 given below lists the values of negative dichroism of the anthraquinone derivative of general formula /1/ for examples 1-30 in a liquid-crystalline mixture ZK-807; Table 2 illustrates physico-chemical characteristics, and Table 3--limiting solubility in liquid-crystalline mixtures (ZK-807, ZLI-1840, 3010, SP-586, ZK-1282) at 20° C.

[4] = λmax of the long-wave absorption band of the dye; conditions: Table 1 / Examples; several values = several maxima
Method: as §1

SMILES | Solubility (limiting), known derivatives ([1]; ZK-807, 20° C.) [mass %] | λmax, known derivatives [2] [nm] | Solubility (limiting), known derivatives ([1]; ZLI-1840, 20° C.) [mass %] | Solubility (limiting) ([1]; 3010, 20° C.) [mass %] | Solubility (limiting) ([1]; ZK-807, 20° C.) [mass %] | negative dichroism S [3] | λmax [4] | Solubility (limiting) ([1]; ZLI-1840, 20° C.) [mass %] | Solubility (limiting) ([1]; SP-586, 20° C.) [mass %] | Solubility (limiting) ([1]; ZK-1282, 20° C.) [mass %] | solubility exceeds the solubility of the known analogue ([1]; ratio to known derivative, No. 2, 7 and 6 of Table 3 vs No. 1, 5 and 6 of Table 6) [times]
CCCCCCc1ccc(C(=O)Nc2ccc(O)c3c2C(=O)c2c(NC(=O)c4ccc(CCCCCC)cc4)ccc(O)c2C3=O)cc1 [No. 9, Table 6, reference compound] | 0.1 | 562 |  |  |  |  |  |  |  |  | 
CCCCCC1CCC(c2ccc(C(=O)Nc3ccc(O)c4c3C(=O)c3c(NC(=O)c5ccc(C6CCC(CCCCC)CC6)cc5)ccc(OC(=O)c5ccc(C6CCC(CCCCC)CC6)cc5)c3C4=O)cc2)CC1 (centres unmarked) [No. 10, Table 6, reference compound] | 0.2 | 554 | 0.6 |  |  |  |  |  |  |  | 
CCCCc1ccc(C(=O)Nc2ccc(O)c3c2C(=O)c2c(NC(=O)c4ccc(CCCC)cc4)ccc(O)c2C3=O)cc1 [No. 7, Table 6, reference compound] | 0.1 | 560 |  |  |  |  |  |  |  |  | 
CCCCc1ccc(C(=O)Nc2ccc(O)c3c2C(=O)c2c(NC(=O)c4ccc(CCCC)cc4)ccc(OC(=O)c4ccc(CCCC)cc4)c2C3=O)cc1 [No. 8, Table 6, reference compound] | 1.0 | 535 | 0.3 |  |  |  |  |  |  |  | 
CCCCCCc1ccc(C(=O)Nc2ccc(NC(=O)c3ccc(CCCCCC)cc3)c3c2C(=O)c2ccccc2C3=O)cc1 [No. 4, Table 6, reference compound] | 2.3 | 512 | 0.6 |  |  |  |  |  |  |  | 
CCCCc1ccc(C(=O)Nc2ccc(OC(=O)c3ccc(CCCC)cc3)c3c2C(=O)c2c(NC(=O)c4ccc(CCCC)cc4)ccc(OC(=O)c4ccc(CCCC)cc4)c2C3=O)cc1 [No. 6, Table 6, reference compound] | 0.5 | 470 |  |  |  |  |  |  |  |  | 
CCCCc1ccc(C(=O)Nc2cc(CCCC)c(O)c3c2C(=O)c2c(NC(=O)c4ccc(CCCC)cc4)cc(CCCC)c(OC(=O)c4ccc(CCCC)cc4)c2C3=O)cc1 [Compound 18, 1,8-bis-(4-butylbenzamido)-4-(4-butylbenzoyloxy)-3,6-dibutyl-5-oxyanthraquinone] |  |  |  | 0.7 | 2.7 | -0.31 | 534 nm |  |  |  | 
CCCCCC1CCC(c2ccc(C(=O)Nc3cc(CCCC)c(O)c4c3C(=O)c3c(OC(=O)c5ccc(C6CCC(CCCCC)CC6)cc5)c(CCCC)cc(NC(=O)c5ccc(C6CCC(CCCCC)CC6)cc5)c3C4=O)cc2)CC1 (centres unmarked) [Compound 24] |  |  |  | 6.0 | 6.0 | -0.33 | 563 nm and 617 nm | 5.5 |  |  | 
CCCCc1ccc(C(=O)Nc2ccc(NC(=O)c3ccc(CCCC)cc3)c3c2C(=O)c2ccccc2C3=O)cc1 [No. 3, Table 6, reference compound] | 2.0 | 508 | 0.3 |  |  |  |  |  |  |  | 
CCCCc1ccc(C(=O)Nc2ccc(OC(=O)c3ccc(CCCC)cc3)c3c2C(=O)c2c(NC(=O)c4ccc(CCCC)cc4)cc(C)c(OC(=O)c4ccc(CCCC)cc4)c2C3=O)cc1 [Compound 3, 1,8Bis-(4-butylbenzamido)-4,5-bis-(4-butylbenzoyloxy)-3-methylanthraquinone] |  |  |  | 1.1 | 5.0 | -0.34 | 465 nm | 1.0 | 2.0 |  | 
CCCCCC1CCC(c2ccc(C(=O)Nc3cc(CCCC)c(O)c4c3C(=O)c3c(NC(=O)c5ccc(C6CCC(CCCCC)CC6)cc5)cc(CCCC)c(OC(=O)c5ccc(C6CCC(CCCCC)CC6)cc5)c3C4=O)cc2)CC1 (centres unmarked) [Compound 19] |  |  |  | 4.8 |  | -0.38 | 540 nm | 2.5 | 2.9 |  | 
CCCCCCC1CCC(C(=O)Nc2ccc(OC(=O)C3CCC(CCCCCC)CC3)c3c2C(=O)c2c(NC(=O)C4CCC(CCCCCC)CC4)cc(C)c(OC(=O)C4CCC(CCCCCC)CC4)c2C3=O)CC1 (centres unmarked) [Compound 5] |  |  |  | 1.0 | 3.0 | -0.37 | 461 nm |  |  |  | 
CCCCCC1CCC(c2ccc(C(=O)Nc3cc(CCCC)c(O)c4c3C(=O)c3c(NC(=O)c5ccc(C6CCC(CCCCC)CC6)cc5)cc(CCCC)c(OC(=O)C5CCC(CCCC)CC5)c3C4=O)cc2)CC1 (centres unmarked) [Compound 21] |  |  |  | 3.3 |  | -0.37 | 542 nm | 3.0 |  | 2.7 | 
CCCCCCc1ccc(C(=O)Nc2ccc(OC(=O)c3ccc(CCCCCC)cc3)c3c2C(=O)c2c(NC(=O)c4ccc(CCCCCC)cc4)ccc(OC(=O)c4ccc(CCCCCC)cc4)c2C3=O)cc1 [No. 5, Table 6, reference compound] | 0.5 | 468 | 0.1 |  |  |  |  |  |  |  | 
CCCCc1ccc(C(=O)Nc2cc(CCCC)c(NC(=O)c3ccc(CCCC)cc3)c3c2C(=O)c2ccccc2C3=O)cc1 [Compound 2, 1,4-Bis(4-butylbenzamido)-2-butylanthraquinone] |  |  |  |  | 4.0 | -0.22 | 475 nm | 3.6 | 2.9 |  | 2.5
CCCCC[C@H]1CC[C@H](c2ccc(C(=O)Nc3ccc(O)c4c3C(=O)c3c(NC(=O)c5ccc([C@H]6CC[C@H](CCCCC)CC6)cc5)cc(C)c(O)c3C4=O)cc2)CC1 [Compound 27, 1,8-Bis-4-(trans-4-amylcyclohexyl)benzamido-3-methyl-4,5-dioxyanthraquinone] |  |  |  | 1.0 | 1.0 | -0.33 | 562 nm and 603 nm | 1.0 |  | 1.0 | 
